Test results reported in patent publication US7906516B2, “Carbonyl compounds” (Merck Patent GmbH, priority 2003, dated 2011).

Target: FXa (Homo sapiens, UniProt P00742)
Assay: Factor Xa inhibition (FXa-IC50)
Format: biochemical

Chain of FXa (P00742 235-488 limits assumed): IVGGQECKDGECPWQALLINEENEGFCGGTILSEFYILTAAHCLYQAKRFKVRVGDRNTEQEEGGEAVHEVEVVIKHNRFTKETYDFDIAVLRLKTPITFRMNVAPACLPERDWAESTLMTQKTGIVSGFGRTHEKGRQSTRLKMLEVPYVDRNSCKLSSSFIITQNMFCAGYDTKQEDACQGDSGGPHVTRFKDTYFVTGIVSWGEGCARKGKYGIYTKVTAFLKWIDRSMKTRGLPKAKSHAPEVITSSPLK
Chain of FXa (P00742 41-179 partner limits assumed): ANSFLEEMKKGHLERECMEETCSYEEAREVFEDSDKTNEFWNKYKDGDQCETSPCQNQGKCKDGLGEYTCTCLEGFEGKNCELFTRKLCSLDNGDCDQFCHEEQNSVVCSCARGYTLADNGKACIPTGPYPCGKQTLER

Row | IC50 | Structure (SMILES)
1 | 0.027 µM | O=C(Nc1ccc(N2CCOCC2=O)cc1)[C@H]1COCN1C(=O)Nc1ccc(Cl)cc1 [Compound A2, 3-N-[(4-chlorophenyl)]-4-N-{[4-(3-oxomorpholin-4-yl)phenyl]}-(R)-oxazolidine-3,4-dicarboxamide]

Target: TF/FVIIa (Homo sapiens, UniProt P08709)
Assay: TF/factor VIIa inhibition (TF/FVIIa-IC50)
Format: biochemical

Chain of TF/FVIIa (P08709 213-466 limits assumed): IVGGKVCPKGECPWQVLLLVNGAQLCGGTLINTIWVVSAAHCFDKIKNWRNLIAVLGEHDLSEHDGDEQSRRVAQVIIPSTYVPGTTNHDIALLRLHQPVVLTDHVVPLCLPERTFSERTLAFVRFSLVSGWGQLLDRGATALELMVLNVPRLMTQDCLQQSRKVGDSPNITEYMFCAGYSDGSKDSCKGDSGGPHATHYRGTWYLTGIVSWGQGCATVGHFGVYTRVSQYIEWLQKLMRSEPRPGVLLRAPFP
Chain of TF/FVIIa (P08709 61-212 partner limits assumed): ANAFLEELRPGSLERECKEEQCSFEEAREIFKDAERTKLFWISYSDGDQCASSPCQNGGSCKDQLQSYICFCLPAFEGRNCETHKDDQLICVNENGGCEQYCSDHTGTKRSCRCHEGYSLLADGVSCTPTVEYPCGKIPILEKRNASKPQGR
Chain of TF/FVIIa (P13726 33-295 partner): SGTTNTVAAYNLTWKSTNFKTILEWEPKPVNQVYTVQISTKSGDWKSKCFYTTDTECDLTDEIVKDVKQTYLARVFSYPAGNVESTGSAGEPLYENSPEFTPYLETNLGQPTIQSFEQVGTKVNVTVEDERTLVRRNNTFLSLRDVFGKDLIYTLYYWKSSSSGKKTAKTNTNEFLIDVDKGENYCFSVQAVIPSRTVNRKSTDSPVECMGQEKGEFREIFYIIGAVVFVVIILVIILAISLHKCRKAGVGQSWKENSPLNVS

Row | IC50 | Structure (SMILES)
2 | 0.023 µM | O=C(Nc1ccc(N2CCOCC2=O)cc1)[C@H]1CCCN1C(=O)Nc1ccc(Cl)cc1 [Compound A1, 1-N-[(4-chlorophenyl)]-2-N-{[4-(3-oxomorpholin-4-yl)phenyl]}-(R)-pyrrolidine-1,2-dicarboxamide]
3 | 3.9 µM | O=C(Nc1ccc(N2CCOCC2=O)cc1)[C@H]1CCCN1C(=O)c1ccc(Cl)s1 [AB1, N-[4-(3-oxomorpholin-4-yl)phenyl]-(R)-1-(5-chlorothiophene-2-carbonyl)-pyrrolidine-2-carboxamide]

Tested on: not given
Assay: not given

Row | melting point | Structure (SMILES)
4 | 227.6 °C | O=C(Nc1ccc(N2CCOCC2=O)cc1)[C@H]1CCCN1C(=O)Nc1ccc(Cl)cc1 [Compound A1, 1-N-[(4-chlorophenyl)]-2-N-{[4-(3-oxomorpholin-4-yl)phenyl]}-(R)-pyrrolidine-1,2-dicarboxamide]
5 | 141 °C | O=C(Nc1ccc(N2CCOCC2=O)cc1)[C@H]1C[C@@H](O)CN1C(=O)Cc1ccc(Cl)cc1
6 | 154 °C | O=C1C[C@H](C(=O)Nc2ccc(N3CCOCC3=O)cc2)N(C(=O)Nc2ccc(Cl)cc2)C1
7 | 151 °C | O=C(Nc1ccc(N2CCOCC2=O)cc1)[C@H]1C[C@@H](O)CN1C(=O)/C=C/c1ccc(Cl)s1
8 | 133 °C | CO[C@@H]1C[C@H](C(=O)Nc2ccc(N3CCOCC3=O)cc2)N(C(=O)Nc2ccc(Cl)cc2)C1
9 | 245 °C | O=C(NC1CCC(N2CCOCC2=O)CC1)[C@H]1C[C@@H](O)CN1C(=O)Nc1ccc(Cl)cc1 (stereo partly shown)
10 | 129 °C | CC(C)C(=O)O[C@@H]1C[C@H](C(=O)Nc2ccc(N3CCOCC3=O)cc2)N(C(=O)Nc2ccc(Cl)cc2)C1
11 | 117 °C | CCO[C@@H]1C[C@H](C(=O)Nc2ccc(N3CCOCC3=O)c(C)c2)N(C(=O)Nc2ccc(Cl)cc2)C1
12 | 245 °C | O=C(Nc1ccc(N2CCOCC2=O)cc1)[C@H]1C=CCN1C(=O)Nc1ccc(Cl)cc1
13 | 195 °C | O=C(Nc1ccc(N2CCOCC2=O)cc1)[C@H]1CCCN1C(=O)c1ccc(Cl)s1 [AB1, N-[4-(3-oxomorpholin-4-yl)phenyl]-(R)-1-(5-chlorothiophene-2-carbonyl)-pyrrolidine-2-carboxamide]
